Where two headings read alike, the source gives them in different places.
Columns and labels:
[1] = test system: H69/LX4 human small cell lung carcinoma cell line which overexpresses P-glycoprotein (Pgp); assay: Cytotoxicity in drug resistant H69/LX4 cells (AlamarBlue); settings: for Rf (resistance factor): IC50 in H69/LX4 divided by IC50 in H69/P
Description: (§1) The cytotoxicity of compounds of formula (I) was measured using the H69 parental (H69/P) human small cell lung carcinoma cell line and the drug resistant human small cell lung carcinoma cell line H69/LX4 which overexpresses P-glycoprotein (Pgp).
(§2) H69/P and H69/LX4 cells were pipetted into 96-well tissue culture plates and then allowed to incubate at 37° C. for 4 h. A range of concentrations from 0.01 nM to 5 μM of compounds of formula (I) or the standards TAS-103, Doxorubicin and Topotecan were then added. The plates were incubated for 5-6 days before adding AlamarBlue to each well and returning the plates to the incubator for 5-8 h to allow colour development. The cell numbers in the plates at the end of this period were directly proportional to the absorbance measured at a wavelength of 570 nm (reference wavelength 600 nm).

[2] = test system: COR-L23 parental (COR-L23/P) human non-small cell lung carcinoma cell line; assay: Cytotoxicity in COR-L23 parental cells (SRB assay); assay type: cell-based
Description: The cytotoxicity of the compounds described herein was also measured using the COR-L23 parental (COR-L23/P) human non-small cell lung carcinoma cell line and also the drug resistant human non-small cell lung carcinoma cell line COR-L23/R which overexpresses multidrug resistance associated protein (MRP). The cytotoxicity, as measured by the IC50 (concentration required to give 50% cell kill) in the L23/R cell line divided by the cytotoxicity in the L23/P cell line gives an indication of the degree to which a compound may be affected by MRP-dependant MDR and is termed the resistance factor (Rf) of the compound.
(§3) L23/P and L23/R cells were pipetted into 96-well tissue culture plates and then allowed to incubate at 37° C. for 4 h. A range of concentrations from 0.01 nM to 5 μM of compounds of formula (I) or the standards TAS-103, Doxorubicin and Topotecan were then added. The plates were incubated for 5-6 days before proliferation was assessed using the sulphurhodamine B (SRB) assay as described by Skehan et al, J Natl Cancer Inst 1990, 82, pp1107-1112.

[3] = Cytotoxicity in drug resistant COR-L23/R cells (SRB assay); assay type: cell-based, human; settings: Homo sapiens, COR-L23/R; L23/R cells (MRP overexpressing), 5-6 days incubation, SRB
Description: (§4) The cytotoxicity of the compounds described herein was also measured using the COR-L23 parental (COR-L23/P) human non-small cell lung carcinoma cell line and also the drug resistant human non-small cell lung carcinoma cell line COR-L23/R which overexpresses multidrug resistance associated protein (MRP).
as §3

[4] = test system: COR-L23/R human non-small cell lung carcinoma cell line which overexpresses multidrug resistance associated protein (MRP); assay: as above; assay type: cell-based; settings: for Rf (resistance factor): IC50 in L23/R divided by IC50 in L23/P; for IC50: L23/R cells (MRP overexpressing), 5-6 days incubation, SRB
Description: as §4, §3

[5] = test system: Jurkat human leukaemia cell line (JLC); assay: Cytotoxicity in Jurkat cells (JLC); assay type: cell-based
Description: (§5) The cytotoxicity of the compounds described herein was also measured using the Jurkat human leukaemia cell line (JLC) and also the amsacrine-resistant Jurkat human leukaemia cell line (JLA) and the doxorubicin-resistant Jurkat human leukaemia cell line (JLD). The cytotoxicity, as measured by the IC50 (concentration required to give 50% cell kill) in the JLA or JLD cell line divided by the cytotoxicity in the JLC cell line gives an indication of the degree to which a compound may be affected by atypical drug resistance and is termed the resistance factor (Rf) of the compound. The method used has been described previously (Finlay et al, Eur J. Cancer 32A, 708-714, 1996). Compounds were active in the range 1 nM to 5 μM.

[6] = test system: amsacrine-resistant Jurkat human leukaemia cell line (JLA); assay: Cytotoxicity in amsacrine-resistant Jurkat cells (JLA); assay type: cell-based; settings: for IC50: JLA cells (amsacrine-resistant); for Rf(JLA/JLC): IC50 in JLA divided by IC50 in JLC
Description: as §5

[7] = test system: doxorubicin-resistant Jurkat human leukaemia cell line (JLD); assay: Cytotoxicity in doxorubicin-resistant Jurkat cells (JLD); assay type: cell-based; settings: for IC50: JLD cells (doxorubicin-resistant); for Rf(JLD/JLC): IC50 in JLD divided by IC50 in JLC
Description: as §5

[8] = test system: H69 parental (H69/P) human small cell lung carcinoma cell line; assay: Cytotoxicity in H69 parental cells (AlamarBlue); assay type: cell-based; settings: 5-6 days incubation, concentration required to give 50% cell kill
Description: as §1, §2

topoisomerase I = target: T1, topoisomerase I (Homo sapiens, UniProt P11387); assay: Stabilization of cleavable complexes with topoisomerase I; assay type: biochemical; settings: range where an increase in cleavable complexes was observed relative to controls
T1 sequence (P11387 1-765): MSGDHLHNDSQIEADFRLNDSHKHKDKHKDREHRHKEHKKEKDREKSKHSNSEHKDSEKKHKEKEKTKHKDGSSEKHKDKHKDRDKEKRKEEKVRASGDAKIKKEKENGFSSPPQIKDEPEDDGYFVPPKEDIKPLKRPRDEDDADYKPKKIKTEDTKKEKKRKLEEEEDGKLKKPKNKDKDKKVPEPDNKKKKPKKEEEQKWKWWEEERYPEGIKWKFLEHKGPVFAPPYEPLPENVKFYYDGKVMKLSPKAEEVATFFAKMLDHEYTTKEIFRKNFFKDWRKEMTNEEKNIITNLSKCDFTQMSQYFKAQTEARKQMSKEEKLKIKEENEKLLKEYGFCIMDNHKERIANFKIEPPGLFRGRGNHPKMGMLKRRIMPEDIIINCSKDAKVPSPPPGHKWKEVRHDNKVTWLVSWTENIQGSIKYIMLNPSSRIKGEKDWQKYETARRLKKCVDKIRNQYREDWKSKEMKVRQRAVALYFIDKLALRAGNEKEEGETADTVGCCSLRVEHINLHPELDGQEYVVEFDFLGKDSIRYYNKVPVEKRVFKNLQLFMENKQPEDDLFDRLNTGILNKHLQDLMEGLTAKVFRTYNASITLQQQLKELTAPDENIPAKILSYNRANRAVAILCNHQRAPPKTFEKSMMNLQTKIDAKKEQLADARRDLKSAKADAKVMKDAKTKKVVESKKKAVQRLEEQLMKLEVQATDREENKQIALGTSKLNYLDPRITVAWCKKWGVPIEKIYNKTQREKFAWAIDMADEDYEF
From the text: (§6) Compounds were also studied for their ability to stabilize cleavable complexes in the presence of either topoisomerase I or II essentially as described previously (Finlay et al, Eur. J. Cancer 32A, 708-714, 1996). Presence of cleavable complexes was indicated by an increase in the number and intensity of bands observed after electrophoresis and autoradiography. The results are expressed as the effective concentration range where an increase in cleavable complexes was observed relative to controls in the absence of drug.

topoisomerase II = assay: Stabilization of cleavable complexes with topoisomerase II; assay type: biochemical; settings: range where an increase in cleavable complexes was observed relative to controls
From the text: as §6

[9] = Homo sapiens, read-out: H69/LX4 IC50
[10] = Homo sapiens, COR-L23, 5-6 days incubation

SMILES	IC50 [1, 9] [nM]	Rf (resistance factor) [1]	IC50 [2, 10] [nM]	IC50 [3] [nM]	Rf (resistance factor) [4]	IC50 ([5]; Homo sapiens, Jurkat) [nM]	IC50 ([6]; Homo sapiens, Jurkat) [nM]	Rf(JLA/JLC) [6]	IC50 ([7]; Homo sapiens, Jurkat) [nM]	IC50 [8] [nM]	IC50 [1] [nM]	IC50 ([2]; 5-6 days incubation) [nM]	IC50 [4] [nM]	IC50 [5] [nM]	IC50 [6] [nM]	Rf(JLD/JLC) [7]	IC50 [7] [nM]	Effective concentration range, Topoisomerase I (topoisomerase I) [µM]	Effective concentration range, Topoisomerase II (topoisomerase II) [µM]	IC50 ([1]; read-out: H69/LX4 IC50, H69/LX4 cells (Pgp overexpressing), 5-6 days incubation) [nM]
CC[C@@]1(O)C(=O)OCc2c1cc1n(c2=O)Cc2cc3c(CN(C)C)c(O)ccc3nc2-1 [Topotecan, reference compound]	61.5	3.9	13.6	20.8	1.5	–	–	–	–	–	–	–	–	–	–	–	–	–	–	–
COc1cccc2c1C(=O)c1c(O)c3c(c(O)c1C2=O)C[C@@](O)(C(=O)CO)C[C@@H]3O[C@H]1C[C@H](N)[C@H](O)[C@H](C)O1 [Doxorubicin, reference compound]	3700	135	20.3	327	16.1	7	25.9	3.7	109	–	–	–	–	–	–	–	–	–	–	–
CN(C)CCNC(=O)c1cccc2nc3ccc4cnccc4c3nc12 [Compound 2, Pyrido[4,3-α]phenazine-11-carboxylic acid (2-dimethylamino-ethyl)-amide]	–	0.6	–	–	2.5	–	–	3	–	88	56	22	56	28	84	2.8	78	–	–	–
CN(C)CCNC(=O)c1cccc2nc3ccc4cnn(C)c4c3nc12 [Compound 13, 1-Methyl-1H-pyrazolo[3,4-α]phenazine-10-carboxylic acid (2-dimethylamino-ethyl)-amide]	–	0.9	–	–	–	–	–	1	–	109	97	–	–	44	44	1.1	48	–	–	–
COc1nccc2c1ccc1nc3cccc(C(=O)N[C@H](CO)CN(C)C)c3nc12 [Compound 9, 4-Methoxypyrido[4,3-α]phenazine-11-carboxylic acid (2-dimethylamino-1-(S)-hydroxymethyl-ethyl)-amide]	–	1.2	–	–	1.5	–	–	–	–	24	28	4	6	–	–	–	–	–	–	–
COc1nccc2c1ccc1nc3cccc(C(=O)N[C@H](C)CN(C)C)c3nc12 [Compound 6, 4-Methoxypyrido[4,3-α]phenazine-11-carboxylic acid (2-dimethylamino-1-(R)-methyl-ethyl)-amide]	–	1.2	–	–	1.3	–	–	0.7	–	24	29	12	15	10	7	0.9	9	0.1 to 3.0	0.1 to 3.0	–
CN(C)CCNC(=O)c1cccc2nc3ccc4ncccc4c3nc12 [Compound 3, Pyrido[3,2-α]phenazine-11-carboxylic acid (2-dimethylamino-ethyl)-amide]	–	1.1	–	–	1.5	–	–	2.8	–	123	133	48	71	74	235	0.7	52	–	–	–
COc1nccc2c1ccc1nc3cccc(C(=O)NCCN(C)C)c3nc12 [Compound 5, 4-Methoxypyrido[4,3-α]phenazine-11-carboxylic acid (2-dimethylamino-ethyl)-amide]	–	1.3	–	–	1.1	–	–	0.7	–	21	26	14	16	17	12	0.7	12	0.1 to 3.0	0.1 to 3.0	–
CN(C)CCNc1nc2cc(O)ccc2c2c1C(=O)c1ccccc1-2 [TAS-103, reference compound]	–	1.1	–	–	1.3	–	–	55.9	–	21	–	16.3	22	5.4	302	71.1	384	0.3 to 10.0	0.3 to 10.0	22

Source: US6552021B2, “Pharmaceutical compounds” (Xenova Limited, priority 2000, dated 2003)
